One series deals with AGS. Kind of series: 72-h MTT cytotoxicity assay, AGS. The format is cell-based. The conditions noted are these: Homo sapiens, 72-h MTT, Table 1, read-out: IC50 Anti-proliferative effect on cell line AGS. Here is the method:
(§1) The fluorescence polarisation competitive HDM2 binding assay described in Example 3 was used. Furthermore, the anti-proliferative potency of the compounds against three human tumour cell lines with different genetic make-up was also determined. […] The cell lines used were as follows: AGS, gastric adenocarcinoma, wild-type p53; H1299, large cell lung carcinoma, p53 null, low HDM2; SJSA-1, primitive multipotential bone sarcoma, wild-type p53, overexpressed HDM2.
(§2) Representative bisarylsulfonamide compounds were tested on a panel of transformed and non-transformed human cell lines, using a standard 72-h MTT cytotoxicity assay [Haselsberger K et al, ibid].

Another series addresses T1, HDM2 (Homo sapiens, UniProt Q00987).
T1 construct: Recombinant HDM2 (1.5 μg per well) in TBS-BSA buffer
In words: Fluorescence polarisation competitive HDM2 binding assay. In short, it runs like this:
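Recombinant HDM2 (1.5 μg/well) was preincubated 5 min at room temperature with serially diluted compound in 50 mM Tris pH 7.4, 150 mM NaCl, 0.1% BSA, 5% DMSO final. Fluorescein-labelled p53 peptide (0.2 μM) was then added for 45 min. Polarisation was read at 485/520 nm and IC50 derived from dose-response curves.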
Background: Polarisation of emitted light reports the rotation of a fluorescent probe.

For another series, the system named is SJSA-1. Kind of series: 72-h MTT cytotoxicity assay, SJSA-1. It is filed as cell-based. The following applies: Homo sapiens, SJSA-1; 72-h MTT; Table 1; read-out: IC50 Anti-proliferative effect on cell line SJSA-1. Here is the method: as §1, §2
On the technique in general: Tetrazolium assays rely on reduction of a dye to a coloured formazan, in cell work by metabolically active cells.

For a further series, the system named is H1299. In words: 72-h MTT cytotoxicity assay, H1299. The following applies: Homo sapiens, NCI-H1299; 72-h MTT; Table 1; read-out: IC50 Anti-proliferative effect on cell line H 1299. The format is cell-based. Here is the method: as §1, §2
For another series, the system named is p53. In words: p53 reporter gene assay (U2OS-derived luciferase reporter cell line). The following applies: for Fold induction of luciferase activity: compared to basal luciferase activity, 16-h time point, at concentration of maximal induction; for Concentration (test compound concentration at which the p53 induction was maximal): p53 reporter, U2OS-derived cell line. (In general: A reporter such as luciferase makes a cellular process visible.)

Where [1] appears, read: fluorescence polarisation format, Table 1, read-out: IC50 In vitro competitive HDM2 binding assay.
Setting [2] is: fluorescence polarisation assay, Table 3, read-out: In vitro competitive HDM2 binding assay IC50.

From US20050215548A1 (Cyclacel Limited, priority 2002, published 2005) come the findings set out here.

Read-outs that look alike come from different tables or passages of the source.

T1 sequence (Q00987 whole entry): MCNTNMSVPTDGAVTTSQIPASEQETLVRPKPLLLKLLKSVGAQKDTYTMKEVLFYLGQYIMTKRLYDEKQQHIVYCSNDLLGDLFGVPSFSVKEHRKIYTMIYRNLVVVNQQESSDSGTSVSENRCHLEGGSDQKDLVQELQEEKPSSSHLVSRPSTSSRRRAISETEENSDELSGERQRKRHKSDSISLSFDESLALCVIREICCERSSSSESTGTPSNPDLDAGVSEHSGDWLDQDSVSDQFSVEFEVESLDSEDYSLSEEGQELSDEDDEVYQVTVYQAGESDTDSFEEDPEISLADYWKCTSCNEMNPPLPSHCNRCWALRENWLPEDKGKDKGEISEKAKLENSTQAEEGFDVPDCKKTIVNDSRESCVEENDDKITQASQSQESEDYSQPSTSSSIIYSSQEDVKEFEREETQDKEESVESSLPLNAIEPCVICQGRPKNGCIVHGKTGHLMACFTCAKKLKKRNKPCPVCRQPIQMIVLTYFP
Experimental for p53: A dual assay assessing both cell viability and p53 response was employed. A U2OS-derived cell line stably transfected with a p53 response element and a luciferase reporter gene was created. […] After seeding of cells into 96-well tissue culture plates, treatment with test compounds, and incubation for the desired duration, the cell proliferation reagent WST-1 (Roche Molecular Biochemicals) was used to determine cell viability. The Bright-Glo™ Luciferase Assay System (Promega) was used to measure luciferase activity. The data from the cell viability assay was used to normalise data from the luciferase assay.

For `O=S(=O)(Nc1ccc(C(F)(F)F)cc1)c1cc(S(=O)(=O)Nc2ccc(C(F)(F)F)cc2)c(Cl)s1` [Compound 33, 5-Chlorothiophene-2,4-disulfonic acid bis-[(4-trifluoro-methyl-phenyl)-amide]], the concentration for half-maximal inhibition (IC50) (as a rule, the point on the concentration scale where inhibition reaches its midpoint) with AGS is 68 ± 1 µM; on HDM2 (setting [1]), 65 ± 5 µM; in the series on SJSA-1 it was > 100 µM; in the series with H1299 it was 69 ± 1 µM.

Turning to `O=[N+]([O-])c1cc(S(=O)(=O)Nc2ccc(C(F)(F)F)cc2)ccc1Cl` [Compound 35, 4-Chloro-3-nitro-N-(4-trifluoromethylphenyl)benzenesulfonamide], the IC50 with AGS was determined as 13 ± 3.3 µM; at HDM2 (setting [1]), 192 ± 8 µM; with SJSA-1, 26.5 ± 1.6 µM; with H1299, 9.3 ± 1.7 µM.

`O=[N+]([O-])c1cc(S(=O)(=O)Nc2ccc(Cl)cc2)ccc1Cl` [Compound 38, 4-Chloro-N-(4-chlorophenyl)-3-nitro-benzenesulfonamide]: in the series on p53, the “Fold induction of luciferase activity” value is on record as 4 fold. Moreover, the “Concentration (test compound concentration at which the p53 induction was maximal)” value (“Concentration” for short) with p53 amounted to 13 µM. Further, the IC50 was found to be 16 ± 4 µM with AGS; 231 ± 13 µM at HDM2 (setting [2]); 232 ± 13 µM on HDM2 (setting [1]); 22 ± 4 µM with SJSA-1; 11 ± 4 µM with H1299.

With `O=S(=O)(Nc1cc(C(F)(F)F)cc(C(F)(F)F)c1)c1cnc(Cl)c(Br)c1` [Compound 42, 5-Bromo-6-chloropyridine-3-sulfonic acid (3,5-bis-trifluoromethylphenyl)amide], the IC50 with AGS was found to be 30 ± 7 µM; at HDM2 (setting [1]), 278 ± 50 µM; with SJSA-1, 65 ± 18 µM; in the series with H1299, 32 ± 7 µM.

Turning to `Cn1ncc(-c2ccc(S(=O)(=O)Nc3cc(C(F)(F)F)cc(C(F)(F)F)c3)s2)c1C(F)(F)F` [Compound 43, 5-(1-Methyl-5-trifluoromethyl-1H-pyrazol-4-yl)-thiophene-2-sulfonic acid (3,5-bis-trifluoromethylphenyl)amide], the IC50 came out at 20.9 ± 1 µM in the series with AGS, 133 ± 11 µM at HDM2 (setting [1]), 33.7 ± 0.3 µM with SJSA-1 and 18 ± 0.8 µM in the series with H1299.

Regarding `O=[N+]([O-])c1cc(S(=O)(=O)Nc2cc(C(F)(F)F)cc(C(F)(F)F)c2)sc1Cl` [Compound 44, 5-Chloro-4-nitrothiophene-2-sulfonic acid (3,5-bis-trifluoromethyl-phenyl)-amide], the IC50 turned out to be 10 µM in the series with AGS, 25.4 ± 0.2 µM on HDM2 (setting [1]), 19 ± 3 µM in the series with SJSA-1 and 14 ± 2 µM in the series with H1299.

`O=[N+]([O-])c1cc(S(=O)(=O)NCc2ccc(F)cc2)sc1Cl` [Compound 45, 5-Chloro-4-nitrothiophene-2-sulfonic acid 4-fluorobenzylamide]: the “Fold induction of luciferase activity” value in the series on p53 was 67 fold. The “Concentration” value with p53 worked out at 15 µM. The IC50 with AGS was 7.5 ± 4.4 µM; at HDM2 (setting [2]), 16 ± 3.7 µM; at HDM2 (setting [1]), 16 ± 3.7 µM; in the series with SJSA-1, 11.5 ± 3 µM; in the series on H1299, 11.1 ± 3.1 µM.

As to `O=[N+]([O-])c1cc(S(=O)(=O)Nc2cc(Cl)cc(Cl)c2)ccc1Cl` [Compound 47, 4-Chloro-N-(3,5-dichlorophenyl)-3-nitro-benzenesulfonamide], the IC50 in the series with AGS is 23 ± 2 µM; on HDM2 (setting [1]), 234 ± 37 µM; in the series on SJSA-1, 37 ± 6 µM; in the series on H1299 it was 18 ± 8 µM.

Consider `CN(c1ccc(C(F)(F)F)cc1)S(=O)(=O)c1cc([N+](=O)[O-])c(Cl)s1` [Compound 50, 5-Chloro-4-nitrothiophene-2-sulfonic acid methyl-(4-trifluoromethylphenyl)amide], for which, in the series on p53, the “Fold induction of luciferase activity” value was 21 fold. Further, the “Concentration” value in the series on p53 was determined as 39 µM. Further, the IC50 in the series with AGS turned out to be 30.3 ± 0.3 µM; on HDM2 (setting [2]) it was 7.3 ± 0.6 µM; at HDM2 (setting [1]), 7.3 ± 0.6 µM; with SJSA-1, 35.4 ± 11.5 µM; with H1299, 34.7 ± 6.1 µM.

For the compound `CN(c1ccc(Cl)cc1)S(=O)(=O)c1cc([N+](=O)[O-])c(Cl)s1` [Compound 51, 5-Chloro-4-nitrothiophene-2-sulfonic acid (4-chloro-phenyl)-methylamide], the IC50 is 11.3 ± 1 µM in the series on AGS, 5.9 ± 0.7 µM on HDM2 (setting [1]), 15.6 µM in the series with SJSA-1 and 17.4 ± 3.8 µM in the series with H1299.

Regarding `CN(Cc1ccc(C(F)(F)F)cc1)S(=O)(=O)c1cc([N+](=O)[O-])c(Cl)s1` [Compound 52, 5-Chloro-4-nitrothiophene-2-sulfonic acid methyl-(4-trifluoromethylbenzyl)amide], the half-maximal inhibitory concentration (IC50) with AGS amounted to 23.3 ± 1.4 µM; on HDM2 (setting [1]), 10.7 ± 0.2 µM; in the series with SJSA-1 it was 27.5 ± 1.3 µM; in the series on H1299, 28.5 ± 1.9 µM.

`O=[N+]([O-])c1cc(S(=O)(=O)NCc2cc(Cl)cc(Cl)c2)sc1Cl` [Compound 54, 5-Chloro-4-nitro-thiophene-2-sulfonic acid 3,5-dichloro-benzylamide]: in the series on p53, the “Fold induction of luciferase activity” value is listed as 90 fold. The “Concentration” value in the series on p53 came to 10 µM. Besides, the IC50 worked out at 5.6 ± 0.2 µM in the series with AGS; 20.2 ± 1.3 µM at HDM2 (setting [2]); 20.2 ± 1.3 µM at HDM2 (setting [1]); 12 ± 0.4 µM in the series on SJSA-1; 9.7 ± 2.9 µM with H1299.

For the compound `O=[N+]([O-])c1cc(S(=O)(=O)NCc2cc(F)cc(F)c2)sc1Cl` [Compound 55, 5-Chloro-4-nitro-thiophene-2-sulfonic acid 3,5-difluoro-benzylamide], the “Fold induction of luciferase activity” value with p53 is given as 53 fold. In addition, the “Concentration” value in the series with p53 was found to be 10 µM. The IC50 in the series with AGS was determined as 7 µM; on HDM2 (setting [2]), 27 ± 10.1 µM; on HDM2 (setting [1]), 27 ± 10.1 µM; in the series on SJSA-1 it was 13.3 ± 2.1 µM; in the series with H1299, 9.3 ± 2.5 µM.

For `O=[N+]([O-])c1cc(S(=O)(=O)NCc2ccc(Cl)cc2)sc1Cl` [Compound 56, 5-Chloro-4-nitro-thiophene-2-sulfonic acid 4-chloro-benzylamide], the IC50 in the series on AGS came to 4.3 ± 0.6 µM; at HDM2 (setting [1]), 24.8 ± 5.4 µM; in the series on SJSA-1, 9.3 ± 2.7 µM; with H1299 it was 6.3 ± 1.9 µM.

As for `CC(NS(=O)(=O)c1cc([N+](=O)[O-])c(Cl)s1)c1ccc(F)cc1` (centres unmarked) [Compound 57, 5-Chloro-4-nitro-thiophene-2-sulfonic acid [1-(4-fluoro-phenyl)-ethyl]-amide], the “Fold induction of luciferase activity” value in the series with p53 was 25 fold. For the same compound, the “Concentration” value in the series on p53 came to 7 µM. In addition, the IC50 in the series on AGS stood at 1.7 ± 0.3 µM; at HDM2 (setting [2]) it was 31.1 ± 5.6 µM; at HDM2 (setting [1]), 31.1 ± 5.6 µM; in the series with SJSA-1 it was 5.9 ± 0.2 µM; in the series with H1299, 2.7 ± 0.6 µM.

Regarding `O=[N+]([O-])c1cc(S(=O)(=O)N(Cc2cccc(C(F)(F)F)c2)c2ccc(Cl)cc2)sc1Cl` [Compound 67, 5-Chloro-4-nitro-thiophene-2-sulfonic acid (4-chloro-phenyl)-(3-trifluoromethyl-benzyl)-amide], the IC50 amounted to 6.7 ± 0.9 µM in the series with AGS, 8.5 ± 3.2 µM at HDM2 (setting [1]), 11.8 ± 1.6 µM with SJSA-1 and 12 ± 1 µM in the series on H1299.

For `Cc1sc(S(=O)(=O)Nc2ccc(Cl)cc2)cc1[N+](=O)[O-]` [Compound 73, 5-Methyl-4-nitro-thiophene-2-sulfonic acid (4-chloro-phenyl)-amide], the results for the 50% inhibitory concentration (IC50) in the series on AGS, at HDM2 (setting [1]) and with H1299 were 53 µM, > 167 µM and 66 µM, respectively.

Consider `O=[N+]([O-])c1cc(S(=O)(=O)N(Cc2ccc(C(F)(F)F)cc2)Cc2cccc(C(F)(F)F)c2)sc1Cl` [Compound 75, 5-Chloro-4-nitro-thiophene-2-sulfonic acid (3-trifluoro-methyl-benzyl)-(4-trifluoromethyl-benzyl)-amide], for which the IC50 with AGS turned out to be 9 µM; at HDM2 (setting [1]) it was 3.5 ± 10 µM; with SJSA-1, 18 µM; with H1299, 16 µM.

`O=[N+]([O-])c1cc(S(=O)(=O)NCCc2c[nH]c3ccc(Cl)cc23)ccc1Cl` [Compound 81, 4-Chloro-N-[2-(5-chloro-1H-indol-3-yl)-ethyl]-3-nitro-benzenesulfonamide]: the IC50 was determined as 29 ± 2 µM in the series with AGS, 311 ± 21 µM on HDM2 (setting [1]), 51 ± 1 µM in the series with SJSA-1 and 39 ± 6 µM in the series on H1299.

On to `Cc1ccc(S(=O)(=O)NCCc2c[nH]c3ccc(Cl)cc23)cc1[N+](=O)[O-]` [Compound 82, N-[2-(5-Chloro-1H-indol-3-yl)-ethyl]-4-methyl-3-nitro-benzenesulfonamide], for which the IC50 amounted to 50 µM in the series with AGS, 338 ± 111 µM on HDM2 (setting [1]), 65 ± 4 µM in the series with SJSA-1 and 49 µM in the series on H1299.

With `O=[N+]([O-])c1ccc(NS(=O)(=O)c2cc(C(F)(F)F)cc(C(F)(F)F)c2)cc1Cl` [Compound 105, N-(3-Chloro-4-nitro-phenyl)-3,5-bis-trifluoromethyl-benzenesulfonamide], the IC50 stood at 24 ± 3 µM with AGS, 153 ± 18 µM on HDM2 (setting [1]), 37 ± 18 µM in the series with SJSA-1 and 25 ± 1 µM in the series with H1299.
